Earlier results as cited in article PMC3600580 (Experimental neurology, 2012).

Test system: offspring
Conditions: developmental exposure, ref Kuriyama, et al., 2005, Rice, 2007, Suvorov, 2009

SMILES	activity phenotype of offspring
Brc1ccc(Oc2ccc(Br)cc2Br)c(Br)c1 [BDE-47, 2,2′,4,4′-TetraBDE]	hyperactive
Brc1c(Br)c(Br)c(Oc2c(Br)c(Br)c(Br)c(Br)c2Br)c(Br)c1Br [compound 209]	hyperactive
